Laboratory results taken from ChEMBL document CHEMBL3991601, “The target landscape of clinical kinase drugs” (Science, 2017).
Calls of active or inactive are those of the source. Cut-off read from the data, not from the text of the source, for most assays here: actives have a measured Kd and inactives only a lower limit.

What was measured:
[1] = target: Dual specificity protein kinase CLK1 (Homo sapiens, UniProt P49759)
[2] = target: Mitogen-activated protein kinase 14 (Homo sapiens, UniProt Q16539)
Chain of Mitogen-activated protein kinase 14 (Q16539 whole entry, canonical isoform): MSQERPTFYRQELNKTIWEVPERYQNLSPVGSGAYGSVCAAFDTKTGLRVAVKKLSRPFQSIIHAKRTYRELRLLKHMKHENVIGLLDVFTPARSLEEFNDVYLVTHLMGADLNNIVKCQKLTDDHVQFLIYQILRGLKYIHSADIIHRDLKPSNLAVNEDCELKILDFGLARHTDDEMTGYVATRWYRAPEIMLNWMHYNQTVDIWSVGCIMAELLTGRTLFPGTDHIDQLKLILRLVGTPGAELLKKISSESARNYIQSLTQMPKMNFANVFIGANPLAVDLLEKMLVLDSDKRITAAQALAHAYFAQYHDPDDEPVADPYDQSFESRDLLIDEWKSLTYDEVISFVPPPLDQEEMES

[3] = target: Casein kinase I isoform delta (Homo sapiens, UniProt P48730)
[4] = target: Mitogen-activated protein kinase kinase kinase 4 (Homo sapiens, UniProt Q9Y6R4)
Chain of Mitogen-activated protein kinase kinase kinase 4 (Q9Y6R4 whole entry): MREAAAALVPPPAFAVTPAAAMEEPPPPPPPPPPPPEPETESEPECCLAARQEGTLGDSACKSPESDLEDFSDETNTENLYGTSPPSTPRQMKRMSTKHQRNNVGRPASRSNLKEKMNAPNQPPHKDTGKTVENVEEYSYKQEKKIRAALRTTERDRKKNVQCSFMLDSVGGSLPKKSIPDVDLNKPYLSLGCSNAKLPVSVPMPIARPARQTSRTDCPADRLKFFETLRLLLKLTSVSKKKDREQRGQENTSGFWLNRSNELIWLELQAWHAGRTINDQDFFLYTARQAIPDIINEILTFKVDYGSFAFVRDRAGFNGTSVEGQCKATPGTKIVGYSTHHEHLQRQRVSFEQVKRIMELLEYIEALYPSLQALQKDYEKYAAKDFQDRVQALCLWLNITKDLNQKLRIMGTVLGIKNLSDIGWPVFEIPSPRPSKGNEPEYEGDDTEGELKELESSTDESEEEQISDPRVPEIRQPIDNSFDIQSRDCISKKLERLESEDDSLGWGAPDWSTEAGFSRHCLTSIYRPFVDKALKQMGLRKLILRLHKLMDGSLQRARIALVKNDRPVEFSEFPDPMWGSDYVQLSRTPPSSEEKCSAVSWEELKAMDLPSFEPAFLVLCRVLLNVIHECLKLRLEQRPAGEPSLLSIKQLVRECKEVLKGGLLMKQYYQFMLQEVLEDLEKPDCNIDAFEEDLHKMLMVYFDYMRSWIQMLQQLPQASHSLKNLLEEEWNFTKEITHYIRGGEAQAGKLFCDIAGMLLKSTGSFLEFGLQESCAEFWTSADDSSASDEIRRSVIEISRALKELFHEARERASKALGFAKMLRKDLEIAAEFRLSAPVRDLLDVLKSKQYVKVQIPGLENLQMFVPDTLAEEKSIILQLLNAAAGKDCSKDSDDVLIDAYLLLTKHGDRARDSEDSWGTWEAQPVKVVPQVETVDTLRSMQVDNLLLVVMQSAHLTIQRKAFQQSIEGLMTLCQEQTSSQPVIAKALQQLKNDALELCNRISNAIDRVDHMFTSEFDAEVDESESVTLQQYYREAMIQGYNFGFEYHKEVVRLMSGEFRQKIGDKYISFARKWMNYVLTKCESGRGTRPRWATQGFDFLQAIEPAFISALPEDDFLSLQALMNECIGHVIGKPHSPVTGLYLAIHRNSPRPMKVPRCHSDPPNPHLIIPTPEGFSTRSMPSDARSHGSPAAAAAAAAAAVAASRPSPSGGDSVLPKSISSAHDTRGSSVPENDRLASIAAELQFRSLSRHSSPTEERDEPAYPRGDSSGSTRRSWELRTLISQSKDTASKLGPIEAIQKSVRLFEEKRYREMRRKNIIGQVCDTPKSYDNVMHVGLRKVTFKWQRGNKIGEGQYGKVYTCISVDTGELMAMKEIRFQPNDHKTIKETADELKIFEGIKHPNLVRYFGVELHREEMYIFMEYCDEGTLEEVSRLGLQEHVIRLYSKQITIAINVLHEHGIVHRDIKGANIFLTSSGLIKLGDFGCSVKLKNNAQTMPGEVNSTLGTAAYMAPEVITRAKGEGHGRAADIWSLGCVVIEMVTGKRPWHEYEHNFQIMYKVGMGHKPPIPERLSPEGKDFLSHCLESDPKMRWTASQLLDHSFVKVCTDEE

[5] = target: 26S proteasome regulatory subunit 6B (Homo sapiens, UniProt P43686)
Chain of 26S proteasome regulatory subunit 6B (P43686 whole entry): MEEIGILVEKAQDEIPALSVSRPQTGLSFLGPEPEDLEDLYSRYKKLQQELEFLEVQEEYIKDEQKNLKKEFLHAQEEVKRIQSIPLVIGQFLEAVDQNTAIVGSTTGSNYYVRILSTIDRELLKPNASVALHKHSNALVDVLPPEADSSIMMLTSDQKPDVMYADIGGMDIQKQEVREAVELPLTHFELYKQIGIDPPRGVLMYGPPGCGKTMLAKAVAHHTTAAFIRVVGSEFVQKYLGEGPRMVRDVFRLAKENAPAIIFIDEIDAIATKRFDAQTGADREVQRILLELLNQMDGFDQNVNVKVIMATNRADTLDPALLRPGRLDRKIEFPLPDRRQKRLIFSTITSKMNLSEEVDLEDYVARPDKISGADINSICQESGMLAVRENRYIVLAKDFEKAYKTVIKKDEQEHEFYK

[6] = target: Glycogen synthase kinase-3 alpha (Homo sapiens, UniProt P49840)
Chain of Glycogen synthase kinase-3 alpha (P49840 whole entry): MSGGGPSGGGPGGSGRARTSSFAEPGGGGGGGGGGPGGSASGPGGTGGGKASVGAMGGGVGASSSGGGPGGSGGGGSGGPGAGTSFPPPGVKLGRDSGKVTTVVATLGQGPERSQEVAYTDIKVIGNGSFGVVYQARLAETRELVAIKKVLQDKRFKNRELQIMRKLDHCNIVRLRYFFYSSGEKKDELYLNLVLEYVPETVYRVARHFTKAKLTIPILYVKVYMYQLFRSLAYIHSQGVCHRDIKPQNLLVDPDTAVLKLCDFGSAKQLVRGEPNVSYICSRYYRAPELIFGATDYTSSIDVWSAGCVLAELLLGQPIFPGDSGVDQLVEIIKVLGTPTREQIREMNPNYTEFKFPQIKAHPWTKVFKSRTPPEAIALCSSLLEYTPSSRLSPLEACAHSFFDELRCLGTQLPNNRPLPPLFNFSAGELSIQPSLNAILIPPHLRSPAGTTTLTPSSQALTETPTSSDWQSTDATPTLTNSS

[7] = target: cAMP-dependent protein kinase catalytic subunit beta (Homo sapiens, UniProt P22694)
dCTP pyrophosphatase 1 = target: T1, dCTP pyrophosphatase 1 (Homo sapiens, UniProt Q9H773)
T1 sequence (Q9H773 whole entry): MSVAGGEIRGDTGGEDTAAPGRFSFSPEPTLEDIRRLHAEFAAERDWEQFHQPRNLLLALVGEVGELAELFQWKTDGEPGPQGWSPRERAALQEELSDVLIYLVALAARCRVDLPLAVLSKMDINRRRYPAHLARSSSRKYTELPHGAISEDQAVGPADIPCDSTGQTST

[8] = target: T2, Mitogen-activated protein kinase kinase kinase 2 (Homo sapiens, UniProt Q9Y2U5)
T2 sequence (Q9Y2U5 whole entry): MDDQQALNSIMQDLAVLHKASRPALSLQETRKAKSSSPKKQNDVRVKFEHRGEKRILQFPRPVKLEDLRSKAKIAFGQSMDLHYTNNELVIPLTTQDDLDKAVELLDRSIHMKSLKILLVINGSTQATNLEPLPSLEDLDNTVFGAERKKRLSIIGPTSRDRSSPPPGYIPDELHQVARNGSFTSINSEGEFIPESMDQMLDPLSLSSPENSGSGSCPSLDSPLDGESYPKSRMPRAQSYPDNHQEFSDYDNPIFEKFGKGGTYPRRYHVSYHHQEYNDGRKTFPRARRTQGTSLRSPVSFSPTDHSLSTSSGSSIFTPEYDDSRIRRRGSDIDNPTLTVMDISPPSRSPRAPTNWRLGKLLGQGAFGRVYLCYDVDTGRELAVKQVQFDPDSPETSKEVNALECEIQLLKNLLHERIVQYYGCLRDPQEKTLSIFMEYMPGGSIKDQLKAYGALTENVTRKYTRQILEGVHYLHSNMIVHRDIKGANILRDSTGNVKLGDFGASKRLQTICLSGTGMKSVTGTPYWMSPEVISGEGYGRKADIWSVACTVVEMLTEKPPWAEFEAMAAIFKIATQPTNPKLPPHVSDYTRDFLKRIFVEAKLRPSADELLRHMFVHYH

[9] = target: Rho-associated protein kinase 2 (Homo sapiens, UniProt O75116)
Chain of Rho-associated protein kinase 2 (O75116 whole entry): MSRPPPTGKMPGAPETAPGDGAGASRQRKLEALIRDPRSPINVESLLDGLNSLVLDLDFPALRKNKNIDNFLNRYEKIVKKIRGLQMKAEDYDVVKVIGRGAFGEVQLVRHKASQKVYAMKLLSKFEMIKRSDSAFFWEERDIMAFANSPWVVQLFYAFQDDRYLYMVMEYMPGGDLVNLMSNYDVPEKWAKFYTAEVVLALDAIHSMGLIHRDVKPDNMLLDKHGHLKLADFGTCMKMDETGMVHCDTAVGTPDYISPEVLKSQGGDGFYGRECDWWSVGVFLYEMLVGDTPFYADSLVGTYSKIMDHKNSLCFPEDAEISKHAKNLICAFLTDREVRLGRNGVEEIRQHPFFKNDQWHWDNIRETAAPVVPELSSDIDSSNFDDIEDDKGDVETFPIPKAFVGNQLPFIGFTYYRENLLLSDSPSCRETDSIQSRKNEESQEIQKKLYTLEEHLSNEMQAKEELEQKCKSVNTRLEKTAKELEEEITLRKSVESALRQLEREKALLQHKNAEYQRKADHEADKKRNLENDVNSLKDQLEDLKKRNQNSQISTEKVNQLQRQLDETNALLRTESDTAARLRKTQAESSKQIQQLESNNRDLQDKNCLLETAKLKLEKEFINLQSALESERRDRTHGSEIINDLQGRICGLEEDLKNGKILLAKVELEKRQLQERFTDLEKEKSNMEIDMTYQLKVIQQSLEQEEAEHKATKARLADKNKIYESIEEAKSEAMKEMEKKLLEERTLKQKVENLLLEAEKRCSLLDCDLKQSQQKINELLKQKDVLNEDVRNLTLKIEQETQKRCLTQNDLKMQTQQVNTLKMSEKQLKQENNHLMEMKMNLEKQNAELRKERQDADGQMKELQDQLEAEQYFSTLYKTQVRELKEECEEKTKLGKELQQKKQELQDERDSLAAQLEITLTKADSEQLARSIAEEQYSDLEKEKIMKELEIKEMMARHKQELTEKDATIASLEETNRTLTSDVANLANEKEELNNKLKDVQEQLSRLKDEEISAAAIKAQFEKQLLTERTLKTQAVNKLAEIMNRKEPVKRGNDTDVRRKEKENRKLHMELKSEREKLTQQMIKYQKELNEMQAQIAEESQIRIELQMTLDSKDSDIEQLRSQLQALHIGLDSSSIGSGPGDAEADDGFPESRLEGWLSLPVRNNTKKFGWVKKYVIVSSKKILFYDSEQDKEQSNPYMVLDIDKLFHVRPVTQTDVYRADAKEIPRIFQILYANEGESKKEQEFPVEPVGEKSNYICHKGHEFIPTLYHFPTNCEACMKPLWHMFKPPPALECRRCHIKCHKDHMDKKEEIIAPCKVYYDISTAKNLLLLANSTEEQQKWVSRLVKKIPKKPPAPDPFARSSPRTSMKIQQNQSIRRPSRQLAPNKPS

[10] = target: Calcium/calmodulin-dependent protein kinase kinase 2 (Homo sapiens, UniProt Q96RR4)
[11] = target: T3, Cytochrome c1, heme protein, mitochondrial (Homo sapiens, UniProt P08574)
T3 sequence (P08574 whole entry): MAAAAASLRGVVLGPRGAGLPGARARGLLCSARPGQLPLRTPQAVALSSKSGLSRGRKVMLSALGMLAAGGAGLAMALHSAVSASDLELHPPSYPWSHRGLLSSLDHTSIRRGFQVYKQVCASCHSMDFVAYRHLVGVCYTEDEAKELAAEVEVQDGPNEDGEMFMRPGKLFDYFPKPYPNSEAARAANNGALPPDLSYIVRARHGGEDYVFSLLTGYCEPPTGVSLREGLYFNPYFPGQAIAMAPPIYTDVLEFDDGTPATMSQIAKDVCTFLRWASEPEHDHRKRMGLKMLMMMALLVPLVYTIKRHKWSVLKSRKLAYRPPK

[12] = target: Mitogen-activated protein kinase kinase kinase kinase 4 (Homo sapiens, UniProt O95819)
[13] = target: T4, Phosphatidylinositol 5-phosphate 4-kinase type-2 alpha (Homo sapiens, UniProt P48426)
T4 sequence (P48426 whole entry): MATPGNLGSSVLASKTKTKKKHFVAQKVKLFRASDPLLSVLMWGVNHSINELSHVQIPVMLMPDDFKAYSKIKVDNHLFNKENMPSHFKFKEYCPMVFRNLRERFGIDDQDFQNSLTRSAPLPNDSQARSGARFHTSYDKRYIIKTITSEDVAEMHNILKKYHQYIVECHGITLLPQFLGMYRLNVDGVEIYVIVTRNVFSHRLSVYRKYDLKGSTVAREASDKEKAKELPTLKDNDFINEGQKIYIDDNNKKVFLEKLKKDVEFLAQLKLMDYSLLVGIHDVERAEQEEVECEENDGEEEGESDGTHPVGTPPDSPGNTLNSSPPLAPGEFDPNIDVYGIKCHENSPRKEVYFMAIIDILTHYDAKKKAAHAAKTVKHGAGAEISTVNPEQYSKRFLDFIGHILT

[14] = target: Serine/threonine-protein kinase/endoribonuclease IRE1 (Homo sapiens, UniProt O75460)
Note: in the data inactive means no Kd found up to 30 µM.

Chain of Dual specificity protein kinase CLK1 (P49759 whole entry): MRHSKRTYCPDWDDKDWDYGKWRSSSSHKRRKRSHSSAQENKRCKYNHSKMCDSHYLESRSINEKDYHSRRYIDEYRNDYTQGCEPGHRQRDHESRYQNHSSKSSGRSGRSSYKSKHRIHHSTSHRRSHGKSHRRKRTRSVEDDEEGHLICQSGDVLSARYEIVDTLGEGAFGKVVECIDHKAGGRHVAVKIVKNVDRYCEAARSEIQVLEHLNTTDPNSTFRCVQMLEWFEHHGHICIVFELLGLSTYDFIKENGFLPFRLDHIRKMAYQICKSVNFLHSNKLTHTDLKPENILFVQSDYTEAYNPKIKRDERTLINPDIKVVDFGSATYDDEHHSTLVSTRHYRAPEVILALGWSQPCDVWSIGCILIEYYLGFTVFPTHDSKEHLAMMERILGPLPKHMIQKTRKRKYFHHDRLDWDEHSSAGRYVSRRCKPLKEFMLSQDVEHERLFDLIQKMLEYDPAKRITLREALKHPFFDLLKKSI

Compound | Kd [1] | Kd [2] | Kd [3] | Kd [4] | Kd [5] | Kd [6] | Kd [7] | Kd (dCTP pyrophosphatase 1) | Kd [8] | Kd [9] | Kd [10] | Kd [11] | Kd [12] | Kd [13] | Kd [14]
CO[C@H]1C[C@@H]2CC[C@@H](C)[C@@](O)(O2)C(=O)C(=O)N2CCCC[C@H]2C(=O)O[C@H]([C@H](C)C[C@@H]2CC[C@@H](OP(C)(C)=O)[C@H](OC)C2)CC(=O)[C@H](C)/C=C(\C)[C@@H](O)[C@@H](OC)C(=O)[C@H](C)C[C@H](C)/C=C/C=C/C=C/1C [RIDAFOROLIMUS] | > 30 µM (inactive) | > 30 µM (inactive) | > 30 µM (inactive) | > 30 µM (inactive) | > 30 µM (inactive) | > 30 µM (inactive) | > 30 µM (inactive) | > 30 µM (inactive) | > 30 µM (inactive) | > 30 µM (inactive) | > 30 µM (inactive) | > 30 µM (inactive) | > 30 µM (inactive) | > 30 µM (inactive) | > 30 µM (inactive)
COCC(=O)NC/C=C/c1ccc2ncnc(Nc3ccc(Oc4ccc(C)nc4)c(C)c3)c2c1 [CP-724714] | > 30 µM (inactive) | > 30 µM (inactive) | > 30 µM (inactive) | > 30 µM (inactive) | > 30 µM (inactive) | > 30 µM (inactive) | > 30 µM (inactive) | > 30 µM (inactive) | > 30 µM (inactive) | > 30 µM (inactive) | > 30 µM (inactive) | > 30 µM (inactive) | > 30 µM (inactive) | > 30 µM (inactive) | > 30 µM (inactive)
COc1ncc(-c2ccc3nccc(-c4ccnnc4)c3c2)cc1NS(=O)(=O)c1ccc(F)cc1F [OMIPALISIB] | > 30 µM (inactive) | > 30 µM (inactive) | > 30 µM (inactive) | > 30 µM (inactive) | > 30 µM (inactive) | > 30 µM (inactive) | > 30 µM (inactive) | > 30 µM (inactive) | > 30 µM (inactive) | > 30 µM (inactive) | > 30 µM (inactive) | > 30 µM (inactive) | > 30 µM (inactive) | > 30 µM (inactive) | > 30 µM (inactive)
Cc1cccc(-c2nn3c(c2-c2ccnc4ccc(C(N)=O)cc24)CCC3)n1 [GALUNISERTIB] | > 30 µM (inactive) | > 30 µM (inactive) | 16.1 µM (active) | > 30 µM (inactive) | > 30 µM (inactive) | > 30 µM (inactive) | > 30 µM (inactive) | > 30 µM (inactive) | > 30 µM (inactive) | > 30 µM (inactive) | > 30 µM (inactive) | > 30 µM (inactive) | 1.69 µM (active) | > 30 µM (inactive) | > 30 µM (inactive)
Cc1csc(-c2nnc(Nc3ccc(Oc4ncccc4-c4ccnc(N)n4)cc3)c3ccccc23)c1 [AMG-900] | 2.46 µM (active) | 0.735 µM (active) | > 30 µM (inactive) | > 30 µM (inactive) | > 30 µM (inactive) | > 30 µM (inactive) | > 30 µM (inactive) | > 30 µM (inactive) | 1.97 µM (active) | > 30 µM (inactive) | > 30 µM (inactive) | > 30 µM (inactive) | > 30 µM (inactive) | > 30 µM (inactive) | > 30 µM (inactive)
COCc1c(-c2ccc(NC(=O)Nc3cc(C(F)(F)F)ccc3F)c(F)c2)c2c(N)ncnn2c1CN1CCOCC1 | > 30 µM (inactive) | > 30 µM (inactive) | > 30 µM (inactive) | > 30 µM (inactive) | > 30 µM (inactive) | > 30 µM (inactive) | > 30 µM (inactive) | > 30 µM (inactive) | > 30 µM (inactive) | > 30 µM (inactive) | > 30 µM (inactive) | > 30 µM (inactive) | > 30 µM (inactive) | > 30 µM (inactive) | > 30 µM (inactive)
